22 molecules from PubChem BioAssay AID262 (DTP/NCI, 2004) can be followed below.

The assay concerns LX-1 lung xenograft sc, nude mice, tumor weight. In words: NCI In Vivo Anticancer Drug Screen. Data for tumor model Human Lung LX-1 Xenograft (subcutaneous) in NU/NU Swiss (nude) mice. The following applies: endpoint: optimum tumor weight change, higher = larger tumour. Here is the method: The antitumor activity of compounds was measured in mice bearing transplantable tumors. Survival or tumor size were measured and the results are expressed as the measurement made in the treated group (T) divided by the measurement made in the vehicle treated control group (C). The tumor model used in this assay is Human Lung LX-1 Xenograft (subcutaneous) in NU/NU Swiss (nude) mice
On the technique in general: Xenograft models place foreign cells or tissue in a host animal.

The mark [1] stands for this setting: dose: 200.0 mg/kg/injection, schedule: Q04DX003 (ip), vehicle: saline with Tween-80.
Setting [2] is: dose: 200.0 mg/kg/injection, schedule: Q04DX003 (ip), vehicle: Klucel (hydroxypropylcellulose) (HPC).
Where [3] appears, read: dose: 400.0 mg/kg/injection, schedule: Q04DX003 (ip), vehicle: Klucel (hydroxypropylcellulose) (HPC).
[4] abbreviates: dose: 50.0 mg/kg/injection, schedule: Q04DX003 (ip), vehicle: water.
Setting [5] is: dose: 200.0 mg/kg/injection, schedule: Q04DX003 (ip), vehicle: suspension in saline.

“And” between values parts separate entries of the source, which are not always exact repeats. Equal values may be shown once.

In the case of `O=C(NC1CCCCC1)OCc1c(COC(=O)NC2CCCCC2)c(-c2ccc(Cl)c(Cl)c2)n2c1CCC2`, the T/C is, setting by setting: under setting [1], 89 % of control; (dose: 400.0 mg/kg/injection, schedule: Q04DX003 (ip), vehicle: saline with Tween-80) 88 % of control; (dose: 800.0 mg/kg/injection, schedule: Q04DX003 (ip), vehicle: saline with Tween-80) 73 % of control.
On to `COc1cc([C@@H]2c3cc4c(c(O)c3C[C@H]3COC(=O)[C@@H]32)OCO4)cc(OC)c1OC`, for which the T/C was 107 % of control (dose: 2.5 mg/kg/injection, schedule: Q04DX003 (ip), vehicle: saline); 73 % of control (dose: 5.0 mg/kg/injection, schedule: Q04DX003 (ip), vehicle: saline); 86 % of control (dose: 10.0 mg/kg/injection, schedule: Q04DX003 (ip), vehicle: saline); 64 % of control (dose: 20.0 mg/kg/injection, schedule: Q04DX003 (ip), vehicle: saline).
For the molecule `[N-]=[N+]=CC(=O)CCC(N)C(=O)O` (configuration not stated), the T/C (dose: 37.5 mg/kg/injection, schedule: Q04DX003 (ip), vehicle: saline) was -87 % of control.
As to `N/C(=N\O)c1cn(C2OC(CO)C(O)C2O)c2ncnc(N)c12` (configuration not stated), the T/C is 70 % of control (dose: 5.0 mg/kg/injection, schedule: Q04DX003 (ip), vehicle: Klucel (hydroxypropylcellulose) (HPC)); 68 % of control (dose: 10.0 mg/kg/injection, schedule: Q04DX003 (ip), vehicle: Klucel (hydroxypropylcellulose) (HPC)); 62 % of control (dose: 20.0 mg/kg/injection, schedule: Q04DX003 (ip), vehicle: Klucel (hydroxypropylcellulose) (HPC)).
Turning to `CC(C)CCCCCCCCCCCCC(=O)NCC(=O)NC1C(O)C(O)C(Nc2ncnc3nc[nH]c23)OC1C(O)CO` (configuration not stated), the T/C is, setting by setting: (dose: 3.0 mg/kg/injection, schedule: Q04DX003 (ip), vehicle: suspension in saline) 81 % of control; (dose: 12.0 mg/kg/injection, schedule: Q04DX003 (ip), vehicle: suspension in saline) 34 % of control.
In the case of `O=c1[nH]cnc2n[nH]nc12`, the T/C runs as follows: under setting [2], 111 % of control; under setting [3], 59 % of control; (dose: 800.0 mg/kg/injection, schedule: Q04DX003 (ip), vehicle: Klucel (hydroxypropylcellulose) (HPC)) 94 % of control.
`CCCCNCCCNCCCNC(=O)c1csc(-c2csc(CCNC(=O)C(NC(=O)C(C)C(O)C(C)NC(=O)C(NC(=O)c3nc(C(CC(N)=O)NCC(N)C(N)=O)nc(N)c3C)C(OC3OC(CO)C(O)C(O)C3OC3OC(CO)C(O)C(OC(N)=O)C3O)c3cnc[nH]3)C(C)O)n2)n1` (configuration not stated): the T/C is 56 % of control (dose: 8.0 mg/kg/injection, schedule: Q04DX003 (ip), vehicle: saline); 19 % of control (dose: 15.0 mg/kg/injection, schedule: Q04DX003 (ip), vehicle: saline); 30 % of control (dose: 16.0 mg/kg/injection, schedule: Q04DX003 (ip), vehicle: saline); 20 % of control (dose: 30.0 mg/kg/injection, schedule: Q04DX003 (ip), vehicle: saline); 26 % of control (dose: 32.0 mg/kg/injection, schedule: Q04DX003 (ip), vehicle: saline); 19 % of control (dose: 64.0 mg/kg/injection, schedule: Q04DX003 (ip), vehicle: saline). The T/C (dose: 128.0 mg/kg/injection, schedule: Q04DX003 (ip), vehicle: saline) is 1 % of control.
Consider `CN1N=C(N)c2cn(C3OC(COP(=O)(O)O)C(O)C3O)c3ncnc1c23` (configuration not stated), for which the T/C under setting [4] was 86 % of control.
`O=c1[nH]c2c(ccc3cnccc32)c2c1CCC2`: the T/C (dose: 12.5 mg/kg/injection, schedule: Q04DX003 (ip), vehicle: suspension in saline) was 35 % of control; the T/C (dose: 25.0 mg/kg/injection, schedule: Q04DX003 (ip), vehicle: suspension in saline) is 70 % of control; the T/C (dose: 50.0 mg/kg/injection, schedule: Q04DX003 (ip), vehicle: suspension in saline) was 61 % of control.
Regarding `COc1cccc2c1C(=O)c1c(O)c3c(c(O)c1C2=O)C[C@@](O)(/C(C)=N\O)C[C@@H]3OC1CC(N)C(O)C(C)O1` (some centres not stated), under “dose: 12.5 mg/kg/injection, schedule: Q04DX003 (ip), vehicle: saline”, the T/C was 55 % of control.
Regarding `O=C1c2c(O)ccc(O)c2C(=O)c2c(NCCNCCO)ccc(NCCNCCO)c21`, where the note is “dose: 0.31 mg/kg/injection, schedule: Q04DX003 (ip), vehicle: water”, the T/C was 52 % of control.
Consider `CC(C)=CCNc1ncnc2c1ncn2C1OC(CO)C(O)C1O` (configuration not stated), for which the T/C under setting [5] is 150 % of control.
`Cn1cnc([N+](=O)[O-])c1[Se]c1nc(N)nc2nc[nH]c12`: the T/C is 77 % of control (dose: 25.0 mg/kg/injection, schedule: Q04DX003 (ip), vehicle: water); 54 % of control under setting [4]; 49 % of control (dose: 100.0 mg/kg/injection, schedule: Q04DX003 (ip), vehicle: water).
For the molecule `CN(C)N=Nc1cn[nH]c1C(N)=O`, the T/C reads like this: (dose: 50.0 mg/kg/injection, schedule: Q04DX003 (ip), vehicle: Klucel (hydroxypropylcellulose) (HPC)) 2 % of control; under setting [2], 53 % of control; under setting [3], -43 % of control.
For `COc1cc([C@@H]2c3cc4c(c(O)c3C[C@H]3COC(=O)[C@@H]32)OCO4)cc(OC)c1O`, the T/C runs as follows: (dose: 3.13 mg/kg/injection, schedule: Q04DX003 (ip), vehicle: saline) 122 % of control; (dose: 6.25 mg/kg/injection, schedule: Q04DX003 (ip), vehicle: saline) 55 % of control.
Regarding `CN(C)c1nc(N(C)C)nc(N(C)C)n1`, the T/C was 71 % of control (dose: 60.0 mg/kg/injection, schedule: Q01DX005 (ip), vehicle: Klucel (hydroxypropylcellulose) (HPC)); 188 % of control (dose: 60.0 mg/kg/injection, schedule: Q07DX005 (ip), vehicle: Klucel (hydroxypropylcellulose) (HPC)); 85 % of control (dose: 120.0 mg/kg/injection, schedule: Q01DX005 (ip), vehicle: Klucel (hydroxypropylcellulose) (HPC)); 78 % of control (dose: 120.0 mg/kg/injection, schedule: Q07DX005 (ip), vehicle: Klucel (hydroxypropylcellulose) (HPC)).
Regarding `N=C(N)Sc1ccccn1`, the T/C (dose: 50.0 mg/kg/injection, schedule: Q04DX003 (ip), vehicle: saline) was 182 % of control.
Take `CC(=O)OCC1OC(n2cc(CBr)nn2)C(OC(C)=O)C(OC(C)=O)C1OC(C)=O` (configuration not stated): the T/C (dose: 25.0 mg/kg/injection, schedule: Q04DX003 (ip), vehicle: saline with Tween-80) was 169 % of control; the T/C (dose: 50.0 mg/kg/injection, schedule: Q04DX003 (ip), vehicle: saline with Tween-80) was 61 % of control; the T/C (dose: 100.0 mg/kg/injection, schedule: Q04DX003 (ip), vehicle: saline with Tween-80) was 107 % of control; the T/C under setting [1] was 110 % of control.
Turning to `CCc1ccccc1N1CCN(C(=O)c2cc(OC)c(OC)c(OC)c2)CC1`, the T/C is, setting by setting: (dose: 25.0 mg/kg/injection, schedule: Q04DX003 (ip), vehicle: Klucel (hydroxypropylcellulose) (HPC)) 62 % of control and 85 % of control; (dose: 100.0 mg/kg/injection, schedule: Q04DX003 (ip), vehicle: Klucel (hydroxypropylcellulose) (HPC)) 60 % of control.
Take `CSc1cc(=O)n2c3ccccc3c3ccnc1c32`: the T/C by setting is: (dose: 20.0 mg/kg/injection, schedule: Q04DX003 (ip), vehicle: saline with Tween-80) 92 % of control; (dose: 40.0 mg/kg/injection, schedule: Q04DX003 (ip), vehicle: saline with Tween-80) 71 % of control; (dose: 80.0 mg/kg/injection, schedule: Q04DX003 (ip), vehicle: saline with Tween-80) 93 % of control; (dose: 160.0 mg/kg/injection, schedule: Q04DX003 (ip), vehicle: saline with Tween-80) 92 % of control.
As for `COc1cccc2c1C(=O)c1c(O)c3c(c(O)c1C2=O)C[C@@](O)(C(C)=O)C[C@@H]3OC1CC(N)C(O)C(C)O1` (some centres not stated), the T/C reads like this: (dose: 0.25 mg/kg/injection, schedule: Q04DX003 (ip), vehicle: saline) 52 % of control; (dose: 0.5 mg/kg/injection, schedule: Q04DX003 (ip), vehicle: saline) 39 % of control; (dose: 1.0 mg/kg/injection, schedule: Q04DX003 (ip), vehicle: saline) 86 % of control.
For `CNC=O`, the T/C runs as follows: (dose: 200.0 mg/kg/injection, schedule: Q04DX003 (ip), vehicle: saline) 64 % of control and 82 % of control and 86 % of control; under setting [5], 56 % of control and 67 % of control; (dose: 400.0 mg/kg/injection, schedule: Q04DX003 (ip), vehicle: saline) 38 % of control and 41 % of control and 49 % of control; (dose: 400.0 mg/kg/injection, schedule: Q04DX003 (ip), vehicle: suspension in saline) 37 % of control and 57 % of control; (dose: 800.0 mg/kg/injection, schedule: Q04DX003 (ip), vehicle: saline) 12 % of control and 23 % of control; (dose: 800.0 mg/kg/injection, schedule: Q04DX003 (ip), vehicle: suspension in saline) 25 % of control and 30 % of control.
